We go through 5 molecules from ChEMBL document CHEMBL1201862, “PubChem BioAssay data set” (2004).

Test systems include SK-MEL-5; NCI-H23; HCT-15; COLO 205; OVCAR-5; SR; SNB-19; RPMI-8226; A498; UO-31; EKVX; IGROV-1; SF-268; SF-539; OVCAR-3; SNB-75.
Holding throughout (test): growth of human tumour cells (NCI), 48 h

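Dose response: 5 concentrations. Exposure: 48 h. Format: 96-well plates. Endpoint: linear interpolation; highest concentration if not reached. GI50 = concentration required for 50% inhibition of growth.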 Activity calls are given as the source filed them. Rule as the data show it: active = GI50 up to about 1.1 µM and inactive = higher.

On to `COc1cccc(C2CC23C(=O)NC(=O)NC3=O)c1` (configuration not stated), for which the GI50 with SK-MEL-5 is > 100 µM (inactive); with NCI-H23, > 100 µM (inactive); in the test on HCT-15, above 100 µM; in the test with COLO 205, > 100 µM (inactive); with OVCAR-5 it was > 100 µM (inactive); in the test with SR, > 100 µM (inactive). The GI50 in the test with SNB-19, with RPMI-8226, in the test on A498, in the test on UO-31, with EKVX and in the test with IGROV-1 was > 100 µM (inactive) each time. In addition, the GI50 with SF-268, in the test on SF-539 and in the test with OVCAR-3 was > 100 µM (inactive) throughout.

Turning to `c1ccc2c(c1)cc1n2CC2CN=NC12` (configuration not stated), the GI50 is > 100 µM (inactive) in the test on SK-MEL-5; above 100 µM in the test on HCT-15; > 100 µM (inactive) in the test on OVCAR-5; > 100 µM (inactive) in the test on SR; > 100 µM (inactive) with SNB-19; > 100 µM (inactive) with RPMI-8226. Moreover, the GI50 in the test with A498 is > 100 µM (inactive); in the test with SNB-75, 47.8 µM (inactive); in the test with UO-31, > 100 µM (inactive); with EKVX, > 100 µM (inactive); in the test with IGROV-1, > 100 µM (inactive); with SF-268 it was > 100 µM (inactive). In addition, the GI50 in the test on SF-539 and with OVCAR-3 was > 100 µM (inactive) each time.

As for `CCOC(=O)/C(=C/c1cccc(Cl)c1)N(CC)CC`, the GI50 in the test with SK-MEL-5 is 41.1 µM (inactive); in the test on NCI-H23 it was 27.7 µM (inactive); with HCT-15, 38.7 µM; in the test on COLO 205, > 100 µM (inactive); with OVCAR-5 it was > 100 µM (inactive); in the test with SR, > 100 µM (inactive). For the same molecule, the GI50 in the test with RPMI-8226 was 36.7 µM (inactive); with A498, > 100 µM (inactive); in the test on SNB-75, 70.5 µM (inactive); in the test with UO-31, 37.1 µM (inactive); in the test on EKVX, 55.7 µM (inactive); in the test on IGROV-1 it was 49.4 µM (inactive). Moreover, the GI50 was 52.7 µM (inactive) with SF-268 and 73.5 µM (inactive) with SF-539.

In the case of `Cc1nc(Nc2ccc(Cl)cc2)sc1C(=O)Nc1cccc2c(=O)[nH][nH]c(=O)c12`, the GI50 was 2.52 µM (inactive) in the test on SK-MEL-5; 16.4 µM (inactive) in the test with NCI-H23; 21.8 µM in the test with HCT-15; 16 µM (inactive) in the test with COLO 205; 36.9 µM (inactive) in the test with OVCAR-5; 21 µM (inactive) with SR. In addition, the GI50 in the test with SNB-19 is 43.3 µM (inactive); in the test on A498 it was 22.8 µM (inactive); in the test on SNB-75, 28 µM (inactive); with UO-31, 31.8 µM (inactive); in the test with EKVX, 8.34 µM (inactive); with IGROV-1, 25.2 µM (inactive). Besides, the GI50 in the test with SF-268 is 31.8 µM (inactive); in the test on SF-539, 36.7 µM (inactive); in the test on OVCAR-3, 18.9 µM (inactive).

Take `NNC(=S)N/N=C(/C(=O)Nc1ccc([N+](=O)[O-])cc1)c1nc2ccc([N+](=O)[O-])cc2nc1O`: the GI50 with SK-MEL-5 is 45.5 µM (inactive); in the test on NCI-H23, > 100 µM (inactive); with HCT-15 it was 74.6 µM; in the test with COLO 205, > 100 µM (inactive); in the test on OVCAR-5, > 100 µM (inactive); in the test on SR, > 100 µM (inactive). The GI50 in the test on RPMI-8226, in the test with A498, in the test on SNB-75, in the test with UO-31, in the test with EKVX and in the test with IGROV-1 was > 100 µM (inactive) each time. The GI50 in the test with SF-268 and in the test on SF-539 was > 100 µM (inactive) throughout.
